Patent US20250235460A1, “COMBINATION THERAPY USING GLUCOSE-DEPENDENT INSULINOTROPIC POLYPEPTIDE RECEPTOR ANTAGONIST COMPOUNDS AND GLP-1 RECEPTOR AGONIST COMPOUNDS” (Pfizer Inc., priority 2024, published 2025)
Where two headings read alike, the source gives them in different places.

Biological target: T1, human Glucose-dependent Insulinotropic Polypeptide Receptor (hGIPR) (Homo sapiens, UniProt P48546)
T1 sequence (P48546 22-466): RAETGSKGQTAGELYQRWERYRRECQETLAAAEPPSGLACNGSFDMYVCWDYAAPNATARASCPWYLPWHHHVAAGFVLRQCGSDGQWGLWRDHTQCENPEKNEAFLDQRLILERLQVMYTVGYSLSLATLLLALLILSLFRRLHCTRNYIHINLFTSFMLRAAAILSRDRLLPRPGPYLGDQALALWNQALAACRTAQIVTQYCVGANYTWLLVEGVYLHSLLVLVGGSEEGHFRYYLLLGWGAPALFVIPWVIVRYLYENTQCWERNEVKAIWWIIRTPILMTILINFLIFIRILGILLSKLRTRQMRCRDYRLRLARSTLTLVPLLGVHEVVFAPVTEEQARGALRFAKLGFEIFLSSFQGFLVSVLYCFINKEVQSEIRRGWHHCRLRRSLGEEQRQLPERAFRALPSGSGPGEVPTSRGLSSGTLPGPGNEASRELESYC
Experiment: Functional in vitro GIPR antagonist potency assay (cAMP HTRF, CHO-K1 cells stably expressing hGIPR, hGIP stimulation at EC80)
Assay type: cell-based
Description: The functional in vitro antagonist potency for test compounds was determined by monitoring intracellular cyclic adenosine monophosphate (cAMP) levels in Chinese hamster ovary (CHO)—K1 cells stably expressing the human Glucose-dependent Insulinotropic Polypeptide Receptor (hGIPR). Following agonist activation, hGIPR associates with the G-protein complex causing the Gas subunit to exchange bound guanosine diphosphate (GDP) for guanosine triphosphate (GTP), followed by dissociation of the Gas-GTP complex. The activated Gas subunit can couple to downstream effectors to regulate the levels of second messengers or cAMP within the cell. Thereby, determination of intracellular cAMP levels allows for pharmacological characterization. Intracellular cAMP levels are quantitated using a homogenous assay utilizing the Homogeneous Time Resolved Fluorescence (HTRF) technology from Perkin Elmer. […] The two entities compete for binding to a monoclonal anti-cAMP antibody labeled with cryptate. The specific signal is inversely proportional to the concentration of cAMP in the cells.
Test compounds were solubilized to a concentration of 30 mM in 100% dimethyl sulfoxide (DMSO). An 11-point dilution series using 1 in 3.162-fold serial dilutions was created in 100% DMSO with a top concentration of 8 mM. […]
Frozen assay-ready vials (at 1×10^7 cells/vial) of CHO-K1 cells stably expressing the Gs-coupled human GIPR receptor (Eurofins, DiscoverX, Cat No. 95-0146C2) were thawed, counted, and resuspended in assay buffer consisting of Hank's Balanced Salt Solution (HBSS, Lonza Cat No. 10-527) containing 20 mM (4-(2-hydroxyethyl)-1-piperazineethanesulfonic acid (HEPES, Lonza, Cat No. 17-737E), 0.1% bovine serum albumin (BSA, Sigma, Cat No. A7979), and 200 μM 3-isobutyl-1-methylxanthine (IBMX, Sigma, Cat No. 15879) at a density of 4×10^5 cells/mL. Cells were added to assay plate (5 μL/well of 4×10^5 cells/mL stock for 2,000 cells/well final) containing 50 nL of 200×FAC test compound, and incubated at 37° C. […] ([…]: 5% CO2), after which intracellular cAMP levels were quantified as per Perkin Elmer's protocol (5 μL of d2 and then 5 μL cryptate, incubated for 1 hour at room temperature). Emission spectra of samples were measured on a Pherastar plate reader (BMG Labtech Inc) using a HTRF protocol (excitation, 320 nm; emission, 665 nm/620 nm).
([…]: 5% CO2), with a micro-clime lid. […] ([…]: 5% CO2), after which intracellular cAMP levels were quantified and samples measured as described previously. […]
Data were analyzed using the ratio of fluorescence intensity at 620 and 665 nm for each well, extrapolated from the cAMP standard curve to express data as nanomolar (nM) cAMP for each well. […]

[1] = CHO-K1 cells stably expressing human GIPR, inhibition of hGIP (EC80)-stimulated cAMP, 2 h preincubation

Structure (SMILES) | IC50 | IC50 [1]
CC(C)c1ccc(NC(=O)N2CC[C@H](C)[C@@H]2C(=O)Nc2ccc(-c3ccc(C(=O)O)cc3)cc2)cc1 (single isomer, unassigned) [Compound 34A, 4′-{[(3S)-3-Methyl-1-{[4-(propan-2-yl)phenyl]carbamoyl}-D-prolyl]amino}[1,1′-biphenyl]-4-carboxylic acid or 4′-{[(3R)-3-Methyl-1-{[4-(propan-2-yl)phenyl]carbamoyl}-L-prolyl]amino}[1,1′-biphenyl]-4-carboxylic acid] | 10 nM | 
CC(C)c1ccc(NC(=O)N2CC[C@@H](C)[C@@H]2C(=O)Nc2ccc(-c3ccc(C(=O)O)cc3)cc2)cc1 (single isomer, unassigned) [Compound 35A, 4′-{[(3R)-3-Methyl-1-{[4-(propan-2-yl)phenyl]carbamoyl}-D-prolyl]amino}[1,1′-biphenyl]-4-carboxylic acid or 4′-{[(3S)-3-Methyl-1-{[4-(propan-2-yl)phenyl]carbamoyl}-L-prolyl]amino}[1,1′-biphenyl]-4-carboxylic acid] | 4.6 nM | 
Cc1cc(NC(=O)N2CCC[C@@H]2C(=O)Nc2ccc(-c3ccc(C(=O)O)nc3)cc2)ccc1C(C)C [Compound 19A, 5-{4-[(1-{[3-Methyl-4-(propan-2-yl)phenyl]carbamoyl}-D-prolyl)amino]phenyl}pyridine-2-carboxylic acid] |  | 11 nM
O=C(O)c1ccc(-c2ccc(NC(=O)[C@H]3CCCN3C(=O)Nc3ccc(C(F)(F)F)cc3)nc2)cc1 [Compound 31A, 4-{6-[(1-{[4-(Trifluoromethyl)phenyl]carbamoyl}-D-prolyl)amino]pyridin-3-yl}benzoic acid] |  | 7.8 nM
